Entries after “also recorded” stand apart in the source; their conditions may differ.

The source of these data is US11246856B2, “Methods of treating resistant cancers” (University of Maryland, Baltimore, priority 2017, dated 2022).

The test system of assay [1] is A375 cells. Description: Spheroid formation assay, A375. Type of assay: cell-based. The protocol: (§1) Cancer cells were maintained under attached conditions in growth media containing DMEM (Invitrogen, Frederick, Md.) supplemented with 4.5 mg/ml D-glucose, […] L-glutamine, 100 mg/ml sodium pyruvate, and 5% fetal calf serum. For spheroid culture, monolayer cultures were dissociated with 0.25% trypsin and the cells were collected by centrifugation, and resuspended in spheroid media, consisting of DMEM/F12 (1:1) (DMT-10-090-CV, Mediatech INC, Manassa, Va.) containing 2% B27 serum-free supplement (17504-044, Invitrogen, Frederick, Md.) 20 ng/ml EGF (E4269, Sigma, St. Louis), 0.4% bovine serum albumin (B4287, Sigma) and […] insulin (19278 Sigma, St. Louis, Mo.) and plated at 40,000 cells per 9.6 cm^2 well in six well ultra-low attachment Costar cluster dishes (4371, Corning, Tewksbury, Mass.). Parallel cultures were plated in spheroid media on conventional plastic dishes for growth as monolayer cultures.

Assay [2] relates to A375-PLX-R spheroid cell-derived tumors. Kind of assay: Tumor xenograft assay, A375-PLX-R spheroid cell-derived tumors. The assay is classed as in vivo, NSG mice. The protocol: (§2) Cells were grown for ten days as spheroids and a single cell suspension, prepared by trypsin digestion, was resuspended in phosphate buffered saline containing 30% Matrigel and 100 μl containing 0.1 million cells were injected subcutaneously at the two front flanks of NOD/scid/IL2 receptor gamma-knockout mice (NSG mice) using a 26.5 gauge needle. PLX4032 was dissolved in phosphate-buffered saline containing 10% DMSO and delivered at 20 mg/kg by oral gavage in […] three times per week (M/W/F). Verteporfin was dissolved in phosphate-buffered saline containing 10% DMSO and 0-100 mg/kg was delivered by intraperitoneal injection of […] three times per week (M/W/F). Five mice were used per group (two tumors per mouse) and treatment was initiated two days after tumor cell injection. Tumor growth was monitored by measuring tumor diameter and calculating tumor volume using the formula, volume=4/3π×(diameter/2)^3. Mice were euthanized by injection of 250 μl of a 2.5% stock of Avertin per mouse followed by cervical dislocation of the neck. Tumor samples were harvested to prepare extract for immunoblot and sections for immunostaining. These experiments were reviewed and approved by the University of Maryland-Baltimore Institutional Animal Care and Use Committee. The plotted values are mean±SEM and significance were determined using the students t-test.

Assay [3] deals with A375 cells. Description: Matrigel invasion assay, A375. Type of assay: cell-based. The protocol:
(§3) Matrigel (BD Biolabs) was diluted in 0.01 M Tris-HCL/0.7% NaCl, filter-sterilized and 0.1 ml was used to cover the membrane in BD BioCoat cell inserts (#353097, […], 24 well format, membrane growth area=0.33 cm^2). Cells 25,000/well were plated in […] of growth media containing 1% FCS atop the Matrigel. Growth media containing 10% FCS was added to the lower well and cells were incubated overnight at 37 C. The following day, excess cells from the top side of the membrane were removed with a cotton swab, and the membrane was rinsed in phosphate-buffered saline, fixed with 4% paraformaldehyde for 10 minutes, washed and stained in […] DAPI for 10 minutes to visualize the cells. The underside of the membrane was photographed with an inverted fluorescent microscope to count the number of cells that had migrated through the Matrigel layer (38).

Assay [4] has as its system A375-PLX-R cells. Description: Spheroid formation assay, A375-PLX-R. Type of assay: cell-based. The protocol: as §1
(§4) A375, SK-MEL-5 and SK-MEL-28 cell lines were maintained in DMEM growth medium containing 10% FCS, 2 mM L-glutamine and 1 mM sodium pyruvate. The WM3248 cells were maintained in MCDB153:L15 (4:1) growth medium containing 2% FCS, […] insulin and 1.68 mM CaCl2. To create PLX4032-resistant cells, A375, SK-MEL-5, SK-MEL-28 and WM3248 cells were treated with […] in monolayer culture in growth medium for several weeks. The surviving cells were then expanded and cultured in increasing doses of PLX4032 up to […]. The resulting PLX4032-resistant cells, designated PLX4032-resistant (e.g., A375-PLX-R) were routinely maintained in the presence of […] PLX4032.

The test system of assay [5] is PLX4032-resistant SK-MEL-5, SK-MEL-28 and WM3248 cells. Kind of assay: Spheroid formation, other PLX4032-resistant melanoma lines. Type of assay: cell-based. The following applies: PLX4032-resistant SK-MEL-5, SK-MEL-28, WM3248; FIGS. 5B, 5E. The protocol:
as §1
(§5) A375, SK-MEL-5 and SK-MEL-28 cell lines were maintained in DMEM growth medium containing 10% FCS, 2 mM L-glutamine and 1 mM sodium pyruvate. […]
(§6) The impact of verteporfin on additional PLX4032 resistant melanoma cancer cell lines was examined. […] To determine whether YAP1 and TAZ can antagonize PLX4032 action, constitutively active YAP1 and TAZ were expressed in wild-type SK-MEL-28 cells and the impact on cell proliferation was monitored.

Assay [6] shares this test system. Description: Matrigel invasion, other PLX4032-resistant melanoma lines. Type of assay: cell-based. The following applies: PLX4032-resistant SK-MEL-5, SK-MEL-28, WM3248; FIGS. 5C, 5F. The protocol: as §3, §5, §6
Assay [7] concerns A375-PLX-R cells. Kind of assay: Matrigel invasion assay, A375-PLX-R. The assay is classed as cell-based. Further details: suppression of matrigel invasion at higher verteporfin concentrations: dose or concentration left out as unconfirmed. The protocol: as §3, §4
Assay [8] has as its system tumor-derived cells. Kind of assay: Matrigel invasion of cells from verteporfin-treated tumors. Type of assay: cell-based. The following applies: FIG. 6H. The protocol:
Tumors were initiated and treated with PLX4032 or verteporfin as above. At 4 weeks, the tumors were removed, mechanically dissociated and dispersed as single cell suspensions with 0.25% trypsin for 10 min and plated as monolayer cultures. After 24 h, the cells were harvested and seeded at 25,000 cells/well atop a 0.1 ml matrigel layer in Millicell (1 cm diameter, […]) chambers in the presence of a serum gradient (38). After 18 h, the membranes were stained with DAPI and the nuclei of migrated cells were visualized by inverted fluorescence microscopy (38).

Assay [9] deals with melanoma cell tumor formation (MCS cells). Kind of assay: Tumor xenograft assay, verteporfin alone (FIGS. 6D-6F). The following applies: verteporfin intraperitoneal, tumor cell line not stated. The assay is classed as in vivo, NSG mice. The protocol: as §2

Regarding `CCCS(=O)(=O)Nc1ccc(F)c(C(=O)c2c[nH]c3ncc(-c4ccc(Cl)cc4)cc23)c1F` [PLX4032], the spheroid formation result in assay [1] (A375 cells, FIGS. 2A-2B) is “suppressed”; in assay [4] (A375-PLX-R cells, FIGS. 2A-2B), “not”; in assay [5], “did not reduce”. Besides, the “ERK1/2-P level in tumors” value in assay [2] (PLX4032 20 mg/kg in the presence of verteporfin) was “reduced”. Further, in assay [2] (PLX4032 20 mg/kg oral gavage three times per week, absence of verteporfin, 20 mg/kg), the “tumor growth / tumor formation” value was “did not suppress”. For the same compound, the matrigel invasion result in assay [3] (A375, PLX4032 treatment) was “not suppressed; also recorded: did not impact”; in [6], “did not reduce”; in [7] (A375-PLX-R, PLX4032 treatment) it was “not suppressed; also recorded: did not impact”. Moreover, the A375-PLX-R spheroid formation entry in [4] (0-1 μM PLX4032, no verteporfin, FIG. 5A legend) is recorded as “does not suppress”; in assay [4] (0-1 mM PLX4032, no verteporfin, FIG. 5A) it was “did not suppress”.
For the compound verteporfin, the IC50 in assay [1] (A375, FIG. 4A legend, read-out: verteporfin concentration suppressing spheroid formation by 50%) is 100 to 250 nM; in assay [3] (A375, FIG. 4D legend, read-out: verteporfin concentration giving 50% suppression of matrigel invasion) it was 500 to 1000 nM; in assay [4] (A375-PLX-R, FIG. 4B legend, read-out: verteporfin concentration suppressing spheroid formation by 50%), 100 to 250 nM; in assay [7] (A375-PLX-R, FIG. 4E legend, read-out: verteporfin concentration giving 50% suppression of matrigel invasion) it was 500 to 1000 nM. The “spheroid formation at higher verteporfin concentrations” value in assay [1] (A375, above 0.1-0.25 mM) is recorded as “nearly completely inhibited”; in [4] (A375-PLX-R, above 0.1-0.25 mM), “nearly completely inhibited”. For the same compound, the “YAP1, YAP1-P, TAZ and TEAD levels in tumors” value in assay [2] (10 mg/kg verteporfin/20 mg/kg PLX4032-treated tumors, FIG. 7C) is “reduction”. For the same compound, the tumor size entry in assay [2] (verteporfin 0-100 mg/kg intraperitoneal three times per week, FIGS. 7A-7B) is given as “dose-dependent reduction”. Moreover, the tumor formation result in [2] (verteporfin 10 mg/kg alone) is on record as “does not suppress”. The “PLX4032-dependent suppression of tumor formation” value in assay [2] (verteporfin 10 mg/kg with PLX4032 20 mg/kg) was “restores”. In addition, the “suppression of matrigel invasion at higher verteporfin concentrations” value is given as “nearly complete” in assay [3] (A375 (FIG. 4D), above 0.5-1 mM) and “nearly complete” in assay [7] (A375-PLX-R (FIG. 4E)). Besides, the “matrigel invasion of tumor-derived cells after in vivo treatment” value in [8] was “reduced”. Besides, the “PLX4032 suppression of spheroid number on verteporfin co-treatment” value was “restores” in assay [4] (co-treatment 0.1 μM verteporfin with 0-1 μM PLX4032, FIG. 5A legend) and “restored” in assay [4] (co-treatment 0.1 mM verteporfin with 0-1 mM PLX4032, FIG. 5A). Also, in [5], the spheroid formation entry is “reduced”. Besides, the matrigel invasion result in assay [6] is “reduced”. For the same compound, the “YAP1 and TAZ level in tumors” value in assay [9] (FIG. 6F) was “suppressed”. Further, the “tumor size / tumor formation” value in [9] (FIGS. 6D-6E) is listed as “reduced”.
